# Assays:
# HIV-1 = conditions: OD, converted to pg of protein
# Method: Virus production (p24 release) was examined in an HIV-1-infected monocyte line. Cells were treated or not treated with HDAC-inhibitors and other compounds. P24 release expressed as optical density (“OD”) (FIG. 13), and then converted to pg of protein (FIG. 14). […] DMSO was vehicle for some of the compounds tested.
# P3HR1 cells [1] = assay: Titration / toxicity of HDAC inhibitors alone on P3HR1 cells; format: cell-based, human
# Method: (§1) Healthy, actively-growing P3HR1 cells were harvested and resuspended in fresh growth media. Cells were seeded in wells. Appropriate dilutions of HDAC inhibitors were added to certain wells, some of which received an anti-viral drug (such as GCV at 50 μM concentration). At 72 hrs, 800 μl of culture fluid was removed from each well. Wells were then refed with 1.0 ml fresh growth media without HDAC inhibitors. Fresh GCV solution was added to the wells that originally received GCV at the same initial concentration. On day 6, cell morphology was observed under microscope and viable cell counts in each individual wells were determined by trypan blue dye exclusion method using an automated cell counter (Countess, Invitrogen).
# P3HR1 cells [2] = format: cell-based, human; conditions: for effective concentration: in the presence of GCV
# Method: (§2) The induction of lytic phase was assayed in EBV-positive lymphoma cell lines exposed to different HDAC inhibitors (HDACi) for 24-48 hrs, then the expression of EBV TK and other EBV transcripts by RT-PCR analysis was quantified. To determine tumor cytotoxic activity of the combination of HDACi and GCV, EBV+ lymphoma cells were exposed to a range of concentrations of HDAC inhibitors and ganciclovir (GCV) for 3 days and then to GCV alone for another 3 days. Efficacy of a particular HDAC inhibitor in the combination treatment approach was then determined by enumerating living cells. A general experimental protocol is described below.
# The EBV-positive B lymphoma cell line P3HR1 was used in the study. The P3HR1 cell line was originally derived from Burkitt's lymphoma patient. EBV maintains a latent state of replication in this cell line. These cells were maintained in RPMI 1640 with 10% fetal bovine serum containing 100 U penicillin per ml and 100 μg streptomycin per ml.
# To test the sensitivity of EBV-positive lymphoma cells towards HDAC inhibitors, P3HR1 cells were treated with HDAC inhibitors in the presence of one anti-viral drug. At the end of the assay, the efficacy of the HDAC inhibitors was assessed by measuring the inhibition of cell growth compared to untreated cells.
# as §1
# EBV-TK = assay: Induction of EBV-TK in EBV-immortalized B-cells and patient-derived tumor cells; format: cell-based, Epstein-Barr virus; conditions: for expression of viral thymidine kinase and other viral protein kinases: EBV-infected lymphocytes
# From the text: In some embodiments, inducing agents include arginine butyrate and/or other histone deacetylase inhibitors. […] This expression of a viral gene can be used as a point for attack by anti-viral agents, allowing for treatment of latent infections.
# Treatment of patients with viral-associated tumors such as EBV with inducing agents such as arginine butyrate, to induce the expression of EBV-TK/EBV-PK, and GCV, to eliminate EBV-TK/EBV-PK expressing tumor cells, is an effective, non-toxic therapy. […] Without wishing to be bound by theory, it is believed that just the presence of the EBV genome in latent form would make the tumor susceptible to this combination protocol.
# P3HR1 cells [3] = format: cell-based, human
# Method: The EBV-positive B lymphoma cell line P3HR1 was used throughout these assays. The P3HR1 cell line was originally derived from Burkitt's lymphoma patient. EBV maintains a latent state of replication in this cell line. Cells were maintained in RPMI 1640 with 10% fetal bovine serum containing 100 U penicillin per ml and 100 μg streptomycin per ml. […] Viable cell counts were measured and toxicity was expressed as percentage of cell growth compared to untreated cells. As shown in FIG. 2A and FIG. 2B, PCV was less toxic to the cells compared to GCV.
# EBV TK = assay: Thymidine kinase expression assay (RT and real-time PCR of TK mRNA); format: cell-based, Epstein-Barr virus; set-up: TK expression: dose or concentration left out as unconfirmed
# Method: To measure the relative level of TK mRNA in various total RNA preparations, reverse transcription and quantitative PCR using real time PCR technology was used. Five micrograms of total RNA was reverse-transcribed using random hexamer primers and Superscript III cDNA synthesis kit (Invitrogen). The cDNA was diluted to a final volume of 60 μl with sterile water, 8 μl of which was then used in each real time PCR reaction in an ABI 7500 Sequencher using SYBR-Green technology. Primers used for the amplification of TK were EBV-TK1-F: 5′-[…]-3′ (SEQ ID NO: 1); EBV-TK1-R: 5′-[…]-3′ (SEQ ID NO: 2). The β-actin mRNA levels in those samples were determined similarly using β-actin-specific primers Actin/hu-F: 5′-[…]-3′ (SEQ ID NO: 3); Actin/hu-R: 5′-[…]-3′ (SEQ ID NO: 4). The relative level of TK expression in a sample was calculated following normalization of β-actin expression level.
# as §2
# P3HR1 cells were seeded in 60 mm plates containing 3×10^6 cells in 3 ml of fresh growth media. Appropriate concentrations of HDAC inhibitors were added to the plate and cells were incubated in the presence of HDAC inhibitors for 6 h, 24 h, 48 h, or as needed. Cells were harvested by centrifugation and washed once in cold PBS. Total cellular RNA was then extracted. To measure the relative level of TK mRNA in various total RNA preparations, reverse transcription and quantitative PCR using real time PCR analysis were used. See, Ghosh, S. K., Forman, L. W., Akinsheye, I., Perrine, S. P., Faller, D. V.: Short discontinuous sodium butyrate exposure efficiently sensitizes latently EBV infected cells towards nucleoside analogue-mediated growth inhibition, Blood Cells Mol. Diseases (2007), 38:57-65. The relative level of TK expression in a sample was calculated following normalization of β-actin expression level.
# P3HR1 cells [4] = format: cell-based, human; conditions: then GCV for up to 6 days
compound,measurement,setting,value
CCCCCCCC(=O)SCC/C=C/[C@@H]1CC(=O)NCc2nc(cs2)C2=N[C@@](C)(CS2)C(=O)N[C@@H](C(C)C)C(=O)O1 [largazole],virus production (p24 release),HIV-1,active
"CCC(C)(C)C(=O)O [ST20, 2,2-dimethyl butyrate]",virus production (p24 release),HIV-1,levels similar to the control of vehicle alone
"CCCC(=O)[O-].[Na+] [NaB, sodium butyrate]","cell growth, HDAC inhibitor alone",P3HR1 cells [1]; NaB at concentration higher than 1.0 mM,reduces cell growth to a significant degree
same,reduction of growth compared to cells treated with NaB or GCV alone,P3HR1 cells [2]; NaB+GCV,up to 50%
same,optimal concentration,P3HR1 cells [2]; combination with GCV,1.0 mM
CC(C)C(N)=O [isobutyramide],expression of viral thymidine kinase and other viral protein kinases,EBV-TK,enhance expression
CCC(=O)CCCCC[C@@H]1NC(=O)[C@H]2CCCCN2C(=O)[C@H]([C@@H](C)CC)NC(=O)[C@H](Cc2cn(OC)c3ccccc23)NC1=O [apicidin],toxicity to the cells,P3HR1 cells [1]; 500 nM,very toxic
same,concentration quite toxic to the cells,P3HR1 cells [1]; apicidin alone,higher than 200 nM
same,virus production (p24 release),HIV-1,active
same,reduction of cell growth over cells treated with apicidin alone,"P3HR1 cells [2]; 100 nM and 200 nM, with GCV",40-50%
O=C(CCCCCN1C(=O)c2cccc3cccc(c23)C1=O)NO [Scriptaid],effect with GCV in reducing cell growth,P3HR1 cells [2]; especially at 500 nM and 1 μM,strong synergistic effect
CCCCCCCCCCCCCC(=O)O[C@@H]1[C@@H](C)[C@@]2(O)[C@@H](C=C(CO)C[C@]3(O)C(=O)C(C)=C[C@@H]23)[C@@H]2C(C)(C)[C@]12OC(C)=O [phorbol myristate acetate],virus production (p24 release),HIV-1,active
arginine butyrate,EBV-TK activity,EBV-TK; EBV-immortalized B-cells and patient-derived tumor cells,induces EBV-TK activity
same,expression of viral thymidine kinase and other viral protein kinases,EBV-TK,enhance expression
same,virus production (p24 release),HIV-1,active
"Nc1nc2c(ncn2CCC(CO)CO)c(=O)[nH]1 [PCV, penciclovir]",toxicity (percentage of cell growth compared to untreated cells),P3HR1 cells [3],less toxic
same,inhibition of cell growth at higher concentrations,"P3HR1 cells [3]; PCV at higher concentrations, combination with Na-butyrate",did not change significantly
Cc1[nH]c2ccccc2c1CCNCc1ccc(/C=C/C(=O)NO)cc1 [LBH589],EBV-TK expression in the tumor cells,EBV TK,strongly induced
same,TK expression level,EBV TK; compared to optimum concentration of NaB (2.5 mM),quite high
same,virus production (p24 release),HIV-1,active
same,concentration with activity in combination with GCV comparable to NaB at 1.0 mM,P3HR1 cells [2],50 nM
same,effective concentration,P3HR1 cells [2],50 to 100 nM
Oxamflatin,activity in combination with GCV on cell growth / cell killing,P3HR1 cells [2],synergistic activity
same,activity level (growth suppression) with GCV,"P3HR1 cells [2]; at 200 nM, compared with 1.0 mM NaB",more than what typically seen with 1.0 mM NaB
"CC(C=CC(=O)NO)=CC(C)C(=O)c1ccc(N(C)C)cc1 (stereo not drawn) [trichostatin A, 7-[4-(dimethylamino)phenyl]-N-hydroxy-4,6-dimethyl-7-oxohepta-2,4-dienamide]",virus production (p24 release),HIV-1,active
"CCCC(CCC)C(=O)O [VA, valproic acid]",efficiency in inducing TK expression,EBV TK; compared with NaB,less efficient than NaB
same,activity in combination with GCV on cell growth / cell killing,P3HR1 cells [2],very similar activity
CCC(Nc1ncnc2ccccc12)C(=O)O (stereo not drawn) [RB3],virus production (p24 release),HIV-1,levels similar to the control of vehicle alone
"O=C(CCCCCCC(=O)Nc1ccccc1)NO [SAHA, suberoyl anilide hydroxamic acid]",TK expression level,EBV TK; compared with efficient concentrations of butyrate (1.0 mM),higher level
O=C(/C=C/c1cccc(S(=O)(=O)Nc2ccccc2)c1)NO [PXD101],TK expression,EBV TK,high level
"Nc1ccccc1NC(=O)c1ccc(CNC(=O)OCc2cccnc2)cc1 [MS-275, 3-pyridinylmethyl [[4-[[(2-aminophenyl)amino]carbonyl]phenyl]methyl] carbamate]",EBV-TK expression in the tumor cells,EBV TK,strongly induced
same,concentration strongly inducing TK expression,EBV TK,≥ 500 nM
same,time post treatment at which TK expression was induced,EBV TK,6 h
same,concentration with activity in combination with GCV comparable to NaB at 1.0 mM,P3HR1 cells [2],500 nM
same,effective concentration,P3HR1 cells [2],200 to 500 nM
same,exposure sensitizing cells to GCV-mediated effects as efficiently as 72 hr continuous treatment,P3HR1 cells [4],24 h
